# According to US20030166004A1, “Endothelial-cell binding peptides for diagnosis and therapy” (priority 2001, published 2003):
# Key:
# [1] = tested on: bovine capillary endothelial cells (BCE); assay: BCE proliferation assay (FGF-stimulated, CyQUANT); format: cell-based; conditions: 72 h
# Experimental: (§1) We performed proliferation assays to determine the effect of the synthetic EC binding peptides on the proliferation of endothelial cells. In these assays the proliferation of bovine capillary endothelial (BCE), human microvascular endothelial (HMVEC) and human vascular endothelial cells (HUVEC) was stimulated by FGF and VEGF165 as indicated on FIG. 4. The effect of increasing concentration of synthetic EC binding peptides was measured on the proliferation of the stimulated cells. After the 72 h incubation the media was removed, the plates were washed two times with PBS and frozen at −80° C. Proliferation of the BCE cells was accessed using the CyQUANT® fluorescent cell proliferation assay kit according to the manufacturer's recommendations.
# (§2) In the MSA-peptide fusions the peptide sequence was inserted into a cysteine constrained loop between amino acids 53 and 62. […]
# The transfected COS7-L cells were cultured in defined serum free media (VP-SFM). […] The concentration of the albumin proteins was determined by Western blot analysis of each preparation using a rabbit anti-MSA antibody and using purified MSA of known concentration to generate a standard curve. Following development of the blot and exposure to film the autoradiographs were analyzed using the Gel Doc 1000 image analysis system and Molecular Analyst software (BioRad). […]
# [2] = tested on: HUVEC cells; assay: HUVEC proliferation assay (FGF-stimulated); format: cell-based, human
# Experimental: as §1, §2
# The transfected COS7-L cells were cultured in defined serum free media (VP-SFM). […] The concentration of the albumin proteins was determined by Western blot analysis of each preparation using a rabbit anti-MSA antibody and using purified MSA of known concentration to generate a standard curve. Following development of the blot and exposure to film the autoradiographs were analyzed using the Gel Doc 1000 image analysis system and Molecular Analyst software (BioRad).
Substance,"inhibition of BCE proliferation (in words, active range) [1]","inhibition of HUVEC proliferation (in words, active range) [2]"
MSA-myc: MSA with Myc epitope peptide EQKLISEEDL inserted between Glu 57 and Ser 58 (negative control),did not significantly affect,did not significantly affect
MSA: full-length mouse serum albumin (negative control),did not significantly affect,did not significantly affect
